Data taken from article PMC12732581, “Molecular and System-Level Characterization of MMP12 Suppression in Lung Cancer: A Combined Bioinformatics and Molecular Approach” (International Journal of Molecular Sciences, 2025).

Legend:
Format in all cases: cell-based, human
H1299 cells [1] = assay: Wound healing migration assay; settings: for Wound closure %: untreated 99; for Wound migration rate (px/h): untreated 16,702
Description: The wound healing migration assay was conducted using H1299 cells, following an established protocol. […] Images were captured at 0 and 48 h, and wound closure was quantified using ImageJ. Digital images were analyzed for wound area using the ImageJ software version 1.53e.

[2] = tested on: APOA1 mRNA in H1299 cells; assay: qPCR gene expression, APOA1; settings: H1299, 0.1 IC50, 72 h
Description: (§1) Quantitative real-time PCR (qPCR) was used to assess the impact of MMP12 inhibition in H1299 lung cancer cells.
(§2) Quantitative real-time PCR (qPCR) was conducted as previously described. Lung cancer cell lines (A549, H1299, H661) were seeded at approximately 4 × 10^5 cells per T-25 flask and incubated for 24 h. […] Total RNA was extracted, reverse-transcribed into cDNA, and qPCR was performed using SYBR Green on an Applied Biosystems platform, Foster City, CA, USA. Gene expression was normalized to GAPDH, and the fold-change was calculated using the 2^−ΔΔCt method. The basal expression of MMP12 in untreated A549, H1299, and H661 cells was assessed using the 2^−ΔCt method. Primer sequences and annealing temperatures (Ta) are listed in Table S2 (Supplementary Materials).

H1299 cells [3] = assay: Cell cycle analysis (PI staining, flow cytometry); settings: H1299, ½ IC50, 48 h
Description: Cell cycle distribution was evaluated in H1299 cells using a modified version of the method described. […] After the treatment period, the cells were fixed with ethanol, stained with a propidium iodide/RNase A solution, and analyzed using a BD FACSCanto II flow cytometer. The data were processed with BD FACSDiva software version 8 (BD Biosciences, San Jose, CA, USA).

[4] = tested on: MMP12 mRNA in H1299 cells; assay: qPCR gene expression, MMP12; settings: H1299, 0.1 IC50, 72 h
Description: as §1, §2

[5] = relative to untreated, GAPDH normalized

O=C(/C=C/c1ccc(Cl)cc1)Nc1ccc(C(=O)c2ccccc2)cc1 [Compound C1]
Wound closure % (H1299 cells [1]; H1299, 48 h, at IC50 concentration): 10% | Wound closure % (H1299 cells [1]; H1299, 48 h, at ¼ IC50): 72% | inhibition of wound closure (H1299 cells [1]; H1299, 48 h, at ½ IC50 (C1 45.9, C7 24.1, C9 21.7, C10 32.7, C15 72.6 µM)): ~50% | Wound closure % (H1299 cells [1]; H1299, 48 h, at ½ IC50): 50% | Wound migration rate (px/h) (H1299 cells [1]; H1299, at IC50 concentration): 1,640.73 px/h | Wound migration rate (px/h) (H1299 cells [1]; H1299, at ¼ IC50): 11,751 px/h | Wound migration rate (px/h) (H1299 cells [1]; H1299, at ½ IC50): 9,225 px/h | APOA1 Fold Change (2^−ΔΔCt) [2, 5]: 0.79 | APOA1 % Change ([2]; vs untreated control): −21% | cells in G2/M phase (H1299 cells [3]): 9.1% | cells in S phase (H1299 cells [3]): 36.5% | cells in G0/G1 phase (H1299 cells [3]; untreated 62.5%): 47.4% | MMP12 Fold Change (2^−ΔΔCt) [4, 5]: 0.78 | MMP12 % Change ([4]; vs untreated control): −22%
